Assay results as given in PubChem BioAssay (NCI).
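Step 1: Grow cells in 96-well plates. Step 2: Expose to compound for 48 hours at 5 concentrations. Step 3: Interpolate endpoints linearly; if unreached, use highest concentration. Abbreviation: GI50, concentration required for 50% inhibition of growth. TGI is the concentration that stops growth completely.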

How the values were obtained:
Assay in all cases: NCI anticancer screen, dose series, 48 h
OVCAR-4 ovarian = tested on: OVCAR-4 ovarian
NCI-H23 lung = tested on: NCI-H23 lung
HCC-2998 colon = tested on: HCC-2998 colon
SN12C renal = tested on: SN12C renal
A498 renal = tested on: A498 renal
SNB-19 CNS = tested on: SNB-19 CNS
SK-MEL-28 melanoma = tested on: SK-MEL-28 melanoma
RPMI-8226 leukemia = tested on: RPMI-8226 leukemia

Compound: COC(=O)CCC(NC(=S)N/N=C(\C)c1ccc[nH]1)C(=O)OC (stereo not given)
- TGI (OVCAR-4 ovarian): > 100 µM
- TGI (NCI-H23 lung): > 100 µM
- TGI (HCC-2998 colon): > 100 µM
- TGI (SN12C renal): > 100 µM
- TGI (A498 renal): > 100 µM
- TGI (SNB-19 CNS): > 100 µM
- TGI (SK-MEL-28 melanoma): > 100 µM

Compound: CCCn1c(SCCSc2c3ccccc3c(-c3nc(F)nc(F)n3)n2CCC)c2ccccc2c1-c1nc(F)nc(F)n1
- TGI (RPMI-8226 leukemia): 79.7 µM
- TGI (OVCAR-4 ovarian): > 100 µM
- TGI (NCI-H23 lung): > 100 µM
- TGI (HCC-2998 colon): > 100 µM
- TGI (SN12C renal): > 100 µM
- TGI (SNB-19 CNS): > 100 µM
- TGI (SK-MEL-28 melanoma): > 100 µM

Compound: COc1cc(CNc2nc3c(N)cc(C(F)(F)F)cc3nc2-c2ccccc2)cc(OC)c1OC
- TGI (RPMI-8226 leukemia): > 100 µM
- TGI (OVCAR-4 ovarian): > 100 µM
- TGI (NCI-H23 lung): > 100 µM
- TGI (HCC-2998 colon): > 100 µM
- TGI (SN12C renal): > 100 µM
- TGI (A498 renal): > 100 µM
- GI50 (SNB-19 CNS): > 100 µM
- TGI (SNB-19 CNS): > 100 µM
- TGI (SK-MEL-28 melanoma): > 100 µM

Compound: C=CC(=O)N1C/C(=C\c2ccc(Cl)c(Cl)c2)C(=O)/C(=C/c2ccc(Cl)c(Cl)c2)C1
- TGI (RPMI-8226 leukemia): 0.0983 µM
- TGI (OVCAR-4 ovarian): 0.122 µM
- TGI (NCI-H23 lung): 0.438 µM
- TGI (HCC-2998 colon): 0.446 µM
- TGI (SN12C renal): 0.302 µM
- TGI (A498 renal): 1.89 µM
- TGI (SK-MEL-28 melanoma): 1.5 µM

Compound: COc1cc2c(cc1OC)C(C(=O)O)C(c1ccccc1)N(C)C2=O (stereo not given)
- TGI (RPMI-8226 leukemia): > 100 µM
- TGI (OVCAR-4 ovarian): > 100 µM
- TGI (NCI-H23 lung): > 100 µM
- TGI (HCC-2998 colon): > 100 µM
- TGI (SN12C renal): > 100 µM
- TGI (A498 renal): > 100 µM
- TGI (SNB-19 CNS): > 100 µM
- TGI (SK-MEL-28 melanoma): > 100 µM

Compound: CC(C)N(C(=O)c1cccc(C(=O)N(C(C)C)C(C)C)c1)C(C)C
- TGI (RPMI-8226 leukemia): 67.1 µM
- TGI (OVCAR-4 ovarian): > 100 µM
- TGI (NCI-H23 lung): > 100 µM
- TGI (HCC-2998 colon): > 100 µM
- TGI (SN12C renal): > 100 µM
- TGI (A498 renal): > 100 µM
- TGI (SNB-19 CNS): > 100 µM
- TGI (SK-MEL-28 melanoma): > 100 µM

Compound: C/C(CC(=O)Nc1cccc(Cl)c1C)=N\NC(N)=S
- TGI (RPMI-8226 leukemia): > 100 µM
- TGI (NCI-H23 lung): > 100 µM
- TGI (HCC-2998 colon): > 100 µM
- TGI (A498 renal): > 100 µM
- TGI (SK-MEL-28 melanoma): > 100 µM

Compound: O=C1C2C(C(=O)N1c1ccccc1)C1c3ccccc3C2C2C(=O)N(c3ccccc3)C(=O)C21 (stereo not given)
- TGI (RPMI-8226 leukemia): > 100 µM
- TGI (OVCAR-4 ovarian): > 100 µM
- TGI (NCI-H23 lung): > 100 µM
- TGI (HCC-2998 colon): 24.7 µM
- TGI (SN12C renal): > 100 µM
- TGI (A498 renal): > 100 µM
- TGI (SNB-19 CNS): > 100 µM
- TGI (SK-MEL-28 melanoma): > 100 µM

Compound: ClC(Cl)=C(Cl)C1(Cl)CC1COCc1ccccc1 (stereo not given)
- TGI (RPMI-8226 leukemia): 44.2 µM
- TGI (OVCAR-4 ovarian): > 100 µM
- TGI (NCI-H23 lung): > 100 µM
- TGI (HCC-2998 colon): 81.2 µM
- TGI (SN12C renal): > 100 µM
- TGI (A498 renal): > 100 µM
- TGI (SNB-19 CNS): > 100 µM
- TGI (SK-MEL-28 melanoma): > 100 µM

Compound: C[N+]1=c2c3cccc4cccc(c(=O)n2CC1)c43
- TGI (RPMI-8226 leukemia): 93.1 µM
- TGI (OVCAR-4 ovarian): 43.9 µM
- TGI (NCI-H23 lung): 32.3 µM
- TGI (SN12C renal): 68.8 µM
- TGI (A498 renal): 30.9 µM
- TGI (SK-MEL-28 melanoma): 30.1 µM

Compound: O=c1cc(-c2ccccn2)[nH]c2cccc(F)c12
- TGI (RPMI-8226 leukemia): > 100 µM
- TGI (OVCAR-4 ovarian): > 100 µM
- TGI (NCI-H23 lung): > 100 µM
- TGI (HCC-2998 colon): > 100 µM
- TGI (SN12C renal): > 100 µM
- TGI (SNB-19 CNS): > 100 µM
- TGI (SK-MEL-28 melanoma): > 100 µM

Compound: C/C(CC(=O)NCCc1ccccc1)=N\NS(=O)(=O)c1ccc(C)cc1
- TGI (RPMI-8226 leukemia): > 100 µM
- TGI (NCI-H23 lung): > 100 µM
- TGI (HCC-2998 colon): > 100 µM
- TGI (A498 renal): > 100 µM
- TGI (SK-MEL-28 melanoma): > 100 µM

Compound: CCOC(=O)NC(=O)c1cn(CCN2CCN(C(=O)CNC(=O)CNC(=O)Cn3cc(C(=O)NC(=O)OCC)c(=O)[nH]c3=O)CC2)c(=O)[nH]c1=O
- TGI (NCI-H23 lung): > 100 µM
- TGI (HCC-2998 colon): > 100 µM
- TGI (SN12C renal): > 100 µM
- TGI (A498 renal): > 100 µM
- TGI (SNB-19 CNS): > 100 µM
- TGI (SK-MEL-28 melanoma): > 100 µM

Compound: N#C/C(=C1\SCC(=O)N1c1ccccc1)c1nc2ccccc2[nH]1
- TGI (OVCAR-4 ovarian): > 100 µM
- TGI (NCI-H23 lung): > 100 µM
- TGI (SN12C renal): > 100 µM
- TGI (A498 renal): > 100 µM
- TGI (SNB-19 CNS): > 100 µM
- TGI (SK-MEL-28 melanoma): > 100 µM

Compound: Cc1ccc(S(=O)(=O)N/N=C(\c2nc3ccc(Cl)cc3[nH]c2=O)C(O)c2ccco2)cc1 (stereo not given)
- TGI (OVCAR-4 ovarian): > 100 µM
- TGI (NCI-H23 lung): > 100 µM
- TGI (HCC-2998 colon): > 100 µM
- TGI (A498 renal): > 100 µM
- TGI (SNB-19 CNS): > 100 µM
- TGI (SK-MEL-28 melanoma): > 100 µM

Compound: COc1ccccc1N=Nc1c(-c2ccccc2)nn(C(=O)CC(=O)Nc2cccc(C)c2)c1-c1ccccc1
- TGI (OVCAR-4 ovarian): > 100 µM
- TGI (NCI-H23 lung): > 100 µM
- TGI (HCC-2998 colon): > 100 µM
- TGI (SN12C renal): > 100 µM
- TGI (A498 renal): > 100 µM
- TGI (SNB-19 CNS): > 100 µM
- TGI (SK-MEL-28 melanoma): > 100 µM

Compound: C#CC1(O)CCC2C3CCc4cc(Oc5nc(F)nc(-c6c7ccccc7c7n6CCS7)n5)ccc4C3CC[C@@]21C (stereo not given in full)
- TGI (RPMI-8226 leukemia): 57.5 µM
- TGI (OVCAR-4 ovarian): 68.6 µM
- TGI (NCI-H23 lung): 42.7 µM
- TGI (HCC-2998 colon): 41.7 µM
- TGI (SNB-19 CNS): 70.6 µM
- TGI (SK-MEL-28 melanoma): 57.9 µM

Compound: [N-]=[N+]=NC(c1cn(C2CC(O)C(CO)O2)c(=O)[nH]c1=O)C(Cl)Br (stereo not given)
- TGI (RPMI-8226 leukemia): > 100 µM
- TGI (NCI-H23 lung): > 100 µM
- TGI (HCC-2998 colon): > 100 µM
- TGI (SN12C renal): > 100 µM
- TGI (SNB-19 CNS): > 100 µM
- TGI (SK-MEL-28 melanoma): > 100 µM

Compound: Cc1c(C(=O)C/C(=N/NC(=O)c2ccccc2)C(=O)Nc2ccc(Cl)cc2)[n+](=O)c2ccccc2n1[O-]
- TGI (RPMI-8226 leukemia): > 100 µM
- TGI (OVCAR-4 ovarian): > 100 µM
- TGI (NCI-H23 lung): 92.6 µM
- TGI (SN12C renal): > 100 µM
- TGI (A498 renal): > 100 µM
- TGI (SNB-19 CNS): > 100 µM
- TGI (SK-MEL-28 melanoma): > 100 µM

Compound: CC(C)C1CO[C@]2(C)CCC(=O)N12 (stereo not given in full)
- TGI (RPMI-8226 leukemia): > 100 µM
- TGI (OVCAR-4 ovarian): > 100 µM
- TGI (NCI-H23 lung): > 100 µM
- TGI (SN12C renal): > 100 µM
- TGI (SNB-19 CNS): > 100 µM
- TGI (SK-MEL-28 melanoma): > 100 µM
